Measured values from patent US20230036051A1, “C[…] STABILITY” (priority 2021, published 2023).

Test: Storage stability of THC in ground cannabis flower, non-accelerated storage conditions
Type: physicochemical
Conditions: loss of THC content; positive control, amount not given
Description: After analyzing initial cannabinoid content, an amount of terpene blend 1 was added to 3.5 (±0.05) g of ground flower (1, 2, or 3%, by weight of the dried cannabis) was applied to the product and stored in an air-tight container protected from light. All experiments were performed in triplicate. The testing conditions included: (1) Non-Accelerated Storage Conditions without exogenous terpenes “Control”; (2) Accelerated Conditions (+3.0% by weight hydrogen peroxide, initially, and refreshed each week) without exogenous terpenes, and (3) Accelerated Conditions with exogenous terpenes “H2O2+Terpene” (Blend 1). (FIG. 2). Butylated hydroxytoluene (BHT), a preservative used in food, known to prevent radical-mediated oxidation was employed as a positive control. Each container was opened twice/week and stirred, simulating usual conditions for access of medicinal cannabis. The cannabinoid content was analyzed after 24 and 81 days of storage.
The stabilizing effect was observed after 81 days (TABLE 2) and also between days 24 and 81 (TABLE 3).

Cc1cc(C(C)(C)C)c(O)c(C(C)(C)C)c1 [BHT, Butylated hydroxytoluene]
Relative % Loss 0 to 81 Days: 7.90% | Relative % Loss 24 to 81 Days: 18.65%
